Measurements reported in patent publication US20140343049A1, “DIHYDROFURAN DERIVATIVES AS INSECTICIDAL COMPOUNDS” (SYNGENTA PARTICIPATIONS AG, priority 2011, published 2014).

Assays:
Type in all cases: in vivo
[1] = system: Heliothis virescens (tobacco budworm); experiment: Heliothis virescens egg test on artificial diet; conditions: 96 h, 200 ppm (concentration in well 18 ppm), eggs 0-24 h old, 4 days, egg mortality, larval mortality, growth regulation
Experimental: Eggs (0-24 h old) were placed in 24-well microtiter plate on artificial diet and treated with test solutions at an application rate of 200 ppm (concentration in well 18 ppm) by pipetting. After an incubation period of 4 days, samples were checked for egg mortality, larval mortality, and growth regulation.

[2] = system: Spodoptera littoralis (Egyptian cotton leafworm); experiment: Spodoptera littoralis cotton leaf disc spray test; conditions: foliar, 72 h, cotton leaf discs sprayed at 200 ppm, 5 L1 larvae, mortality, feeding behavior, growth regulation 3 days after treatment
Source text: Cotton leaf discs were placed on agar in a 24-well microtiter plate and sprayed with test solutions at an application rate of 200 ppm. After drying, the leaf discs were infested with 5 L1 larvae. The samples were checked for mortality, feeding behavior, and growth regulation 3 days after treatment (DAT).

[3] = system: Myzus persicae (green peach aphid); experiment: Myzus persicae (sachet) mixed population test; conditions: 120 h, sucrose solution, application rate 12.5 ppm, mortality 5 days after infestation
Source text: Test compounds were applied by pipette into 24 well plates and mixed with Sucrose solution. The plates were closed with a stretched Parafilm. A plastic stencil with 24 holes is placed onto the plate and infested pea seedlings were placed directly on the Parafilm. The infested plate is closed with a gel blotting paper and another plastic stencil and then turned upside down. 5 days after infestation the samples were checked on mortality. Application rate: 12.5 ppm.

[4] = system: Thrips tabaci (onion thrips); experiment: Thrips tabaci sunflower leaf disc spray test; conditions: foliar, 168 h, sunflower leaf discs sprayed at 200 ppm, mixed ages, mortality after 7 days
Experimental: Sunflower leaf discs were placed on agar in a 24-well microtiter plate and sprayed with test solutions at an application rate of 200 ppm. […] After drying, the leaf discs were infested with a thrip population of mixed ages. After an incubation period of 7 days, samples were checked for mortality.

[5] = system: Tetranychus urticae (two-spotted spider mite); experiment: Tetranychus urticae bean leaf disc spray test; conditions: foliar, 192 h, bean leaf discs sprayed at 200 ppm, mixed ages, egg, larval and adult mortality 8 days later
Source text: Bean leaf discs on agar in 24-well microtiter plates were sprayed with test solutions at an application rate of 200 ppm. After drying, the leaf discs are infested with mite populations of mixed ages. 8 days later, discs are checked for egg mortality, larval mortality, and adult mortality. […]

[6] = system: Diabrotica balteata (corn root worm); experiment: Diabrotica balteata L2 larvae test on artificial diet; conditions: 120 h, 200 ppm (concentration in well 18 ppm), 5 days, larval mortality and growth regulation
How it was run: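 Artificial diet treated with test solution at 200 ppm or 12.5 ppm application rate (in-well concentration stated as 18 ppm), dried, then infested with 6-10 L2 larvae per well. Larval mortality and growth regulation scored after 5 days.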

[7] = system: Plutella xylostella (diamond back moth); experiment: Plutella xylostella L2 larvae test on artificial diet; conditions: 144 h, 200 ppm (concentration in well 18 ppm), 6 days, larval mortality and growth regulation
Experimental: 24-well microtiter plate (MTP) with artificial diet was treated with test solutions at an application rate of 200 ppm (concentration in well 18 ppm) by pipetting. After drying, the MTPs were infested with L2 larvae (7-12 per well). After an incubation period of 6 days, samples were checked for larval mortality and growth regulation.

Cc1cc(C2=CC(c3cc(Cl)cc(Cl)c3)(C(F)(F)F)OC2)ccc1C(=O)NC1CSC1 (centres unmarked) [Compound A2]
≥ 80%: pest or weed control at 200 ppm [1] | pest or weed control at 200 ppm [2] | pest or weed control at 12.5 ppm [3] | pest or weed control at 200 ppm [4] | pest or weed control at 200 ppm [5]

CCNC(=O)c1ccc(C2=CC(c3cc(Cl)cc(Cl)c3)(C(F)(F)F)OC2)cc1C (centres unmarked) [Compound A4]
≥ 80%: pest or weed control at 200 ppm [1] | pest or weed control at 200 ppm [2] | pest or weed control at 200 ppm [4] | pest or weed control at 200 ppm [5] | pest or weed control at 200 ppm [6] | pest or weed control at 200 ppm [7]

Cc1cc(C2=CC(c3cc(Cl)cc(Cl)c3)(C(F)(F)F)OC2)ccc1C(=O)NCc1cn(C)cn1 (centres unmarked) [Compound A17]
≥ 80%: pest or weed control at 200 ppm [1] | pest or weed control at 200 ppm [2] | pest or weed control at 200 ppm [4] | pest or weed control at 200 ppm [5] | pest or weed control at 200 ppm [6] | pest or weed control at 200 ppm [7]

Cc1cc(C2=CC(c3cc(Cl)cc(Cl)c3)(C(F)(F)F)OC2)ccc1C(=O)NCCCBr (centres unmarked) [Compound A19]
≥ 80%: pest or weed control at 200 ppm [1] | pest or weed control at 200 ppm [2] | pest or weed control at 200 ppm [4] | pest or weed control at 200 ppm [5] | pest or weed control at 200 ppm [6] | pest or weed control at 200 ppm [7]

Cc1cc(C2=CC(c3cc(Cl)cc(Cl)c3)(C(F)(F)F)OC2)ccc1C(=O)NCCC(F)(F)F (centres unmarked) [Compound A20]
≥ 80%: pest or weed control at 200 ppm [1] | pest or weed control at 200 ppm [2] | pest or weed control at 200 ppm [4] | pest or weed control at 200 ppm [5] | pest or weed control at 200 ppm [6] | pest or weed control at 200 ppm [7]

Cc1cc(C2=CC(c3cc(Cl)cc(Cl)c3)(C(F)(F)F)OC2)ccc1C(=O)NCc1ccc(S(C)(=O)=O)cc1 (centres unmarked) [Compound A25]
≥ 80%: pest or weed control at 200 ppm [1] | pest or weed control at 200 ppm [2] | pest or weed control at 12.5 ppm [3] | pest or weed control at 200 ppm [5] | pest or weed control at 200 ppm [6] | pest or weed control at 200 ppm [7]

CCC(C)NC(=O)c1ccc(C2=CC(c3cc(Cl)cc(Cl)c3)(C(F)(F)F)OC2)cc1C (centres unmarked) [Compound A27]
≥ 80%: pest or weed control at 200 ppm [1] | pest or weed control at 200 ppm [2] | pest or weed control at 200 ppm [4] | pest or weed control at 200 ppm [5] | pest or weed control at 200 ppm [6] | pest or weed control at 200 ppm [7]

Cc1cc(C2=CC(c3cc(Cl)cc(Cl)c3)(C(F)(F)F)OC2)ccc1C(=O)NCC(F)F (centres unmarked) [Compound A29]
≥ 80%: pest or weed control at 200 ppm [1] | pest or weed control at 200 ppm [2] | pest or weed control at 200 ppm [4] | pest or weed control at 200 ppm [5] | pest or weed control at 200 ppm [6] | pest or weed control at 200 ppm [7]

Cc1cc(C2=CC(c3cc(Cl)cc(Cl)c3)(C(F)(F)F)OC2)ccc1C(=O)NC1C[S+]([O-])C1 (centres unmarked) [Compound A77]
≥ 80%: pest or weed control at 12.5 ppm [3] | pest or weed control at 200 ppm [4]

Cc1cc(C2=CC(c3cc(Cl)cc(Cl)c3)(C(F)(F)F)OC2)ccc1C(=O)NCC1CSC1 (centres unmarked) [Compound A78]
≥ 80%: pest or weed control at 200 ppm [1] | pest or weed control at 200 ppm [2] | pest or weed control at 12.5 ppm [3] | pest or weed control at 200 ppm [4] | pest or weed control at 200 ppm [5] | pest or weed control at 200 ppm [6] | pest or weed control at 200 ppm [7]

Cc1cc(C2=CC(c3cc(Cl)cc(Cl)c3)(C(F)(F)F)OC2)ccc1C(=O)NCCC1CS(=O)(=O)C1 (centres unmarked) [Compound A83]
≥ 80%: pest or weed control at 200 ppm [1] | pest or weed control at 200 ppm [2] | pest or weed control at 12.5 ppm [3] | pest or weed control at 200 ppm [5] | pest or weed control at 200 ppm [6] | pest or weed control at 200 ppm [7]

CO/N=C/NC(=O)c1ccc(C2=CC(c3cc(Cl)cc(Cl)c3)(C(F)(F)F)OC2)cc1C (centres unmarked) [Compound A86, (E)-4-[5-(3,5-Dichlorophenyl)-5-trifluoromethyl-2,5-dihydro-furan-3-yl]-N-[(methoxyimino)methyl]-2-methylbenzamide]
≥ 80%: pest or weed control at 200 ppm [1] | pest or weed control at 200 ppm [2] | pest or weed control at 200 ppm [4] | pest or weed control at 200 ppm [5] | pest or weed control at 200 ppm [6] | pest or weed control at 200 ppm [7]

CCCCNC(=O)c1ccc(C2=CC(c3cc(Cl)cc(Cl)c3)(C(F)(F)F)OC2)cc1C (centres unmarked) [Compound D3]
≥ 80%: pest or weed control at 12.5 ppm [3] | pest or weed control at 200 ppm [4] | pest or weed control at 200 ppm [5]

COCC(C)NC(=O)c1ccc(C2=CC(c3cc(Cl)cc(Cl)c3)(C(F)(F)F)OC2)cc1C (centres unmarked) [Compound D4]
≥ 80%: pest or weed control at 12.5 ppm [3] | pest or weed control at 200 ppm [4] | pest or weed control at 200 ppm [5]

Cc1cc(C2=CC(c3cc(Cl)cc(Cl)c3)(C(F)(F)F)OC2)ccc1C(=O)NCCC(F)(F)F (centres unmarked) [Compound D6]
≥ 80%: pest or weed control at 12.5 ppm [3]

CCC(C)NC(=O)c1ccc(C2=CC(c3cc(Cl)cc(Cl)c3)(C(F)(F)F)OC2)cc1C (centres unmarked) [Compound D7]
≥ 80%: pest or weed control at 12.5 ppm [3]

Cc1cc(C2=CC(c3cc(Cl)cc(Cl)c3)(C(F)(F)F)OC2)ccc1C(=O)NCc1ccccc1 (centres unmarked) [Compound D9]
≥ 80%: pest or weed control at 200 ppm [1] | pest or weed control at 200 ppm [2] | pest or weed control at 12.5 ppm [3] | pest or weed control at 200 ppm [4] | pest or weed control at 200 ppm [5] | pest or weed control at 200 ppm [7]

Cc1cc(C2=CC(c3cc(Cl)cc(Cl)c3)(C(F)(F)F)OC2)ccc1C(=O)NC(C)c1ccccc1 (centres unmarked) [Compound D11]
≥ 80%: pest or weed control at 12.5 ppm [3] | pest or weed control at 200 ppm [4] | pest or weed control at 200 ppm [6]

COc1ccc(CNC(=O)c2ccc(C3=CC(c4cc(Cl)cc(Cl)c4)(C(F)(F)F)OC3)cc2C)cc1 (centres unmarked) [Compound D12]
≥ 80%: pest or weed control at 12.5 ppm [3] | pest or weed control at 200 ppm [4] | pest or weed control at 200 ppm [6]

Cc1cc(C2=CC(c3cc(Cl)cc(Cl)c3)(C(F)(F)F)OC2)ccc1C(=O)NCc1ccc(Cl)nc1 (centres unmarked) [Compound D13]
≥ 80%: pest or weed control at 12.5 ppm [3] | pest or weed control at 200 ppm [6]

Cc1cc(C2=CC(c3cc(Cl)cc(Cl)c3)(C(F)(F)F)OC2)ccc1C(=O)Nc1cccc(F)c1 (centres unmarked) [Compound D14]
≥ 80%: pest or weed control at 12.5 ppm [3] | pest or weed control at 200 ppm [5] | pest or weed control at 200 ppm [6]

Cc1cc(NC(=O)c2ccc(C3=CC(c4cc(Cl)cc(Cl)c4)(C(F)(F)F)OC3)cc2C)n(C)n1 (centres unmarked) [Compound D16]
≥ 80%: pest or weed control at 12.5 ppm [3] | pest or weed control at 200 ppm [4] | pest or weed control at 200 ppm [6]

Cc1csc(NC(=O)c2ccc(C3=CC(c4cc(Cl)cc(Cl)c4)(C(F)(F)F)OC3)cc2C)n1 (centres unmarked) [Compound D17]
≥ 80%: pest or weed control at 12.5 ppm [3] | pest or weed control at 200 ppm [6]

Cc1cc(C2=CC(c3cc(Cl)cc(Cl)c3)(C(F)(F)F)OC2)ccc1C(=O)NC1(C)CSC1 (centres unmarked) [Compound D18]
≥ 80%: pest or weed control at 12.5 ppm [3] | pest or weed control at 200 ppm [4] | pest or weed control at 200 ppm [6]

CSCC(C)(C)NC(=O)c1ccc(C2=CC(c3cc(Cl)cc(Cl)c3)(C(F)(F)F)OC2)cc1C (centres unmarked) [Compound D19]
≥ 80%: pest or weed control at 200 ppm [1] | pest or weed control at 200 ppm [2] | pest or weed control at 12.5 ppm [3] | pest or weed control at 200 ppm [5] | pest or weed control at 200 ppm [6] | pest or weed control at 200 ppm [7]

Cc1cc(C2=CC(c3cc(Cl)cc(Cl)c3)(C(F)(F)F)OC2)ccc1C(=O)NC1CCC1 (centres unmarked) [Compound D23]
≥ 80%: pest or weed control at 12.5 ppm [3] | pest or weed control at 200 ppm [4] | pest or weed control at 200 ppm [6] | pest or weed control at 200 ppm [7]

N#Cc1cc(C2=CO[C@@](c3cc(Cl)cc(Cl)c3)(C(F)(F)F)C2)ccc1-n1cncn1 [H1*, 5-[(2S)-2-(3,5-dichlorophenyl)-2-(trifluoromethyl)-3H-furan-4-yl]-2-(1,2,4-triazol-1-yl)benzonitrile]
≥ 80%: pest or weed control at 200 ppm [1] | pest or weed control at 12.5 ppm [3] | pest or weed control at 200 ppm [4] | pest or weed control at 200 ppm [6] | pest or weed control at 200 ppm [7]
